Laboratory results reported in patent US20230348421A1, “5-HT2A RECEPTOR INHIBITOR OR INVERSE AGONIST, PREPARATION METHOD THEREFOR, AND APPLICATION THEREOF” (GENEORA PHARMA (SHIJIAZHUANG) CO., LTD., priority 2020, published 2023).
Like-named read-outs stand apart in the source and are kept apart here.

Legend:
5-HT2A receptor [1] = biological target: T1, 5-HT2A receptor (Homo sapiens (Human), UniProt P28223); assay: Screening for 5-HT2A inverse agonistic activity (NIH3T3-5-HT2A R cells, Bright-Glo luciferase, 120 h); type: cell-based; conditions: NIH3T3-5HT2AR cells, cell inhibition rate
T1 sequence (P28223 whole entry): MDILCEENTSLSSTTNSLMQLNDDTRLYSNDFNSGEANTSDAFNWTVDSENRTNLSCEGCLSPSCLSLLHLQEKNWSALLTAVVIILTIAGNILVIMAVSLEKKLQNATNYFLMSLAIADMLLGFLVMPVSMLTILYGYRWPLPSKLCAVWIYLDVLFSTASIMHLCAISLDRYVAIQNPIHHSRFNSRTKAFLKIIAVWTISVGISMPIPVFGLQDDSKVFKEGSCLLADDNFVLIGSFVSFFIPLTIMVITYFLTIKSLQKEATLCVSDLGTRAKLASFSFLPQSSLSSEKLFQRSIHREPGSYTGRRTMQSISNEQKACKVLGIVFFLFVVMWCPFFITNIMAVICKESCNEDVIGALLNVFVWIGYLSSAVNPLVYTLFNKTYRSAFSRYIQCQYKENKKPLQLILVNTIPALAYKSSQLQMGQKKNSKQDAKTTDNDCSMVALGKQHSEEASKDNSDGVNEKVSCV
Description: • Cell lines: Adherent cells NIH3T3-5-HT2A R • Cell culture medium: DMEM+10% FBS (purchased from GBICO) • Cell culture plate: White-wall clear-bottom 96-well plate (purchased from Perkin Elmer) • Detection kit: Bright-Glo™ Luciferase (purchased from Promega) • Detection instrument: BioTek multifunctional microplate reader
NIH3T3-5HT2AR cells in the logarithmic growth phase were seeded into a white-wall clear-bottom 96-well plate at a density of 1000 cells per well, and cultured overnight in a 37° C., 5% CO2 incubator. […] On the sixth day, a Bright-Glo™ Luciferase reagent with a volume equal to that of cell sap was added to the cells, and the cells were incubated at room temperature in the dark for 20 min. […] The data was processed with GraphPad Prism 7.0 to obtain a cell inhibition rate curve, and the IC50 was calculated.
Cell inhibition rate (%)=[100−(Lum test drug−Lum culture solution)/(Lum cell control−Lum culture solution)×100]%

5-HT2A receptor [2] = biological target: T1, 5-HT2A receptor; assay: Test for 5-HT2A antagonistic activity (calcium ion antagonism, FLIPR, CHO-K1/5-HT2A cells); type: cell-based; conditions: 100 nM a-methyl-5-HT, Ca2+ signal
Description: • Cell lines: CHO-K1/5-HT2A (Chempartner) • Cell culture medium: DMEM/F12+10% FBS (purchased from GBICO) • Cell culture plate: 384-well Assay Plate (purchased from Corning) • Detection kit: FLIPR® Calcium 4 Assay Kit (purchased from Molecular Devices)
After that, centrifugation was performed to remove the culture medium in the cell culture plate. Dye was added, and the cells were incubated in a 37° C., 5% CO2 incubator for another 1 h. The cell culture plate was placed on the FLIPR. A compound to be tested was added, and the Ca^2+ signal was detected, wherein the compound to be tested was subjected to 3-fold gradient dilution with PBS to obtain 10 concentrations, with the highest concentration of 10 uM, and double replicate wells were set up. […] In order to determine the test stability, risperidone was used as a positive control. The data were processed with GraphPad Prism 7.0 to obtain a cell inhibition rate curve, and the IC50 was calculated.
Inhibition rate (%)=100%−[(signal value of the compound to be tested−signal value of the test solution)/(the maximum signal value−the signal value of the test solution)]×100%

hERG potassium channels = hERG potassium channels (Homo sapiens (Human), UniProt Q12809); assay: hERG inhibitory activity, whole-cell patch clamp in CHO-hERG cells
hERG potassium channels, sequence (Q12809 whole entry): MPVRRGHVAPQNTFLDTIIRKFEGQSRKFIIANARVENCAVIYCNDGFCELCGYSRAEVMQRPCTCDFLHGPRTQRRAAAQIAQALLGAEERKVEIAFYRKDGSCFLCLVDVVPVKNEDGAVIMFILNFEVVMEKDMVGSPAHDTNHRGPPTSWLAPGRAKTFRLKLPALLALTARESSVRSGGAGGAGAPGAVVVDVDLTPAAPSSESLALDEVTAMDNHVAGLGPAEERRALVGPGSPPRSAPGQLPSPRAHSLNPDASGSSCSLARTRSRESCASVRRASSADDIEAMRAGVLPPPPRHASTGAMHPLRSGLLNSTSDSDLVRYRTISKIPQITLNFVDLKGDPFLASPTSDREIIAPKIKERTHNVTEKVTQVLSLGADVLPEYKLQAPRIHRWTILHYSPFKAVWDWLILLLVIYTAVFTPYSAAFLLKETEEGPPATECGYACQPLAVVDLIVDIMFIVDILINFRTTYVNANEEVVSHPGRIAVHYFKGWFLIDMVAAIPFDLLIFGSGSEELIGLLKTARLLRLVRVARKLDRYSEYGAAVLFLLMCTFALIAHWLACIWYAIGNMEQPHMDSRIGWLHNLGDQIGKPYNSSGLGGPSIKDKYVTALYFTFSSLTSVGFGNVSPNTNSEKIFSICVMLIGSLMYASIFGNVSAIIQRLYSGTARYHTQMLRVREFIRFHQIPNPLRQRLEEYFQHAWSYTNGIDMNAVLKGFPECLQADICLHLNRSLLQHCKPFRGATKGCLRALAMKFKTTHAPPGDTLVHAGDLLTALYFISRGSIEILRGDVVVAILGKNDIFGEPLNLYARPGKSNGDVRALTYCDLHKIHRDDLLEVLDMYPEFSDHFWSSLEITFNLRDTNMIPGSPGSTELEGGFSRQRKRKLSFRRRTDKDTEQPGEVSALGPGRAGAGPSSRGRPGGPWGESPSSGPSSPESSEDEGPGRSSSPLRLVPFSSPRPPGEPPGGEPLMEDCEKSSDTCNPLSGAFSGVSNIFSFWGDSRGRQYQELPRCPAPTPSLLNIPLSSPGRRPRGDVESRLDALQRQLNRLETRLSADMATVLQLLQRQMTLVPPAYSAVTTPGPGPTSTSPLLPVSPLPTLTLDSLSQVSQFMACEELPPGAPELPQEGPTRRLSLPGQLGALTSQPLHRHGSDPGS
Description: • Name: Dimethyl sulfoxide (DMSO)
• Species & strains: CHO-hERG cell lines (Chinese hamster ovary cells stably expressing hERG channels) • Culture medium: 90% F12, 10% fetal bovine serum, 100 μg/mL G418 and 100 μg/mL hygromycin B • Culture conditions: 5% CO2, 37° C. incubator • Freezing conditions: Liquid nitrogen
Digestion was performed at room temperature for 3-5 min. The digestion solution was pipetted, and the cells were resuspended in extracellular fluid and transferred to an experimental dish for electrophysiological recording for later use.
On the day of the test, the compound was diluted with DMSO to an intermediate concentration. 10 μL of compound with the intermediate concentration was taken, transferred to 4990 μL of extracellular fluid, and subjected to 500-fold dilution to obtain a final concentration to be tested.
CHO (Chinese Hamster Ovary) cells stably expressing hERG potassium channels were taken, and hERG potassium channel currents were recorded at room temperature by means of a whole-cell patch-clamp technique. A glass microelectrode was formed by pulling a glass electrode blank (BF150-86-10, Sutter) with a glass microelectrode puller. The tip resistance was about 2-5 MΩ after perfusion of a pippette solution. The glass microelectrode could be connected to a patch clamp amplifier by inserting the glass microelectrode into an amplifier probe. Clamping voltages and data recording were controlled and recorded by a computer with pClamp 10 software, with a sampling frequency of 10 kHz and a filtering frequency of 2 kHz. After the whole-cell recording was obtained, the cells were clamped at −80 mV, and the step voltage evoking hERG potassium current (I hERG) was changed from −80 mV to +20 mV by giving a 2 s depolarization voltage and then repolarized to −50 mV for 1 s, and returned to −80 mV. Such voltage stimulation was given every 10 s, and the administration process was started after it was determined that the hERG potassium currents were stable (1 min). The compound at each test concentration was given at least 1 min, and at least 2 cells (n≥2) were tested for each concentration.
Data analysis was performed by means of pClamp 10 and GraphPad Prism 5.0 software.
The formula for calculating the degree of inhibition of different compound concentrations on hERG potassium currents (the hERG tail current peak value evoked at −50 mV) was:
Y=Bottom+(Top−Bottom)/(1+10^((LogIC50−X)*HillSlope))
wherein X is a Log value of a test concentration of a test sample, Y is the inhibition percentage at a corresponding concentration, and Bottom and Top are the minimum inhibition percentage and the maximum inhibition percentage, respectively.

[3] = read-out: hERG inhibitory activity IC50, CHO-hERG cells, whole-cell patch clamp, tail current at -50 mV

Compound | IC50 (5-HT2A receptor [1]) [nM] | IC50 (5-HT2A receptor [2]) [nM] | IC50 (hERG potassium channels; [3]) [nM] | IC50 (hERG potassium channels) [nM]
CC(C)COc1ccc(CNC(=O)N(Cc2ccc(F)cn2)C2CCN(C)CC2)cc1 [Compound 1] | 22.8 | 8.64 | 410 | –
CN1CCC(N(Cc2ccc(F)cn2)C(=O)NCc2ccc(O)cc2)CC1 [Compound 3] | – | 11.6 | > 10000 | –
CC(C)COc1ccc(CNC(=O)N(Cc2ncc(F)cn2)C2CCN(C)CC2)cc1 [Compound 13] | – | 1.92 | 1300 | –
CC(C)COc1ccc(CNC(=O)N(CCCN(C)C)Cc2ccc(F)cc2)cc1 [Compound 14] | – | 2.17 | – | –
CN1CCC(N(Cc2ccc(F)cn2)C(=O)NCc2ccc(OCCCF)cc2)CC1 [Compound 17] | – | – | – | 1550
CN1CCC(N(Cc2ccc(F)cn2)C(=O)NCc2ccc(OC(C)(C)C)cc2)CC1 [Compound 18] | 1.12 | 5.75 | 850 | –
CC(C)COc1ccc(CNC(=O)N(Cc2ccc(F)cc2)C2CCN(C)CC2)nc1 [Compound 19] | 49.9 | 6.94 | 480 | –
CC(C)COc1ccc(CNC(=O)N(Cc2ccc(F)cc2)C2CCN(C)CC2)cn1 [Compound 20] | – | 9.14 | 680 | –
CC(C)OCc1ccc(CNC(=O)N(Cc2ccc(F)cc2)C2CCN(C)CC2)cc1 [Compound 21] | 34.1 | 2.1 | 910 | –
CC1(C)Cc2cc(CNC(=O)N(Cc3ccc(F)cn3)C3CCNCC3)ccc2O1 [Compound 23] | 5.64 | 6.02 | > 10000 | –
CN1CCC(N(Cc2ccc(F)cn2)C(=O)NCc2ccc3c(c2)CC(C)(C)O3)CC1 [Compound 24] | 2.54 | 3.49 | 3610 | –
CC(C)C(O)Cc1ccc(CNC(=O)N(Cc2ccc(F)cc2)C2CCN(C)CC2)cc1 (stereo not drawn) [Compound 25] | 16.9 | 6.73 | 1030 | –
CN1CCC(N(Cc2ccc(F)cn2)C(=O)NCc2ccc(OCC(F)(F)F)c(F)c2)CC1 [Compound 26] | 9.79 | 6.86 | 530 | –
CN1CCC(N(Cc2ccc(F)cc2)C(=O)NCc2ccc3c(c2)CC(C)(C)O3)CC1 [Compound 31] | 30 | 17.4 | 1850 | –
CC(C)OCc1ccc(CNC(=O)N(Cc2ccc(F)cn2)C2CCN(C)CC2)cc1 [Compound 37] | 42.8 | 2.05 | 3990 | –
CN1CCC(N(Cc2ccc(F)cn2)C(=O)NCc2ccc(OC(F)(F)C(F)(F)F)cc2)CC1 [Compound 38] | 10 | – | – | –
CC(C)C1Cc2cc(CNC(=O)N(Cc3ccc(F)cn3)C3CCN(C)CC3)ccc2O1 (stereo not drawn) [Compound 41] | 4.29 | 9.98 | 790 | –
CN1CCC(N(Cc2ccc(F)cn2)C(=O)NCc2ccc(OC(CF)CF)cc2)CC1 [Compound 45] | 7.04 | 2.42 | 5500 | –
CN1CCC(N(Cc2ccc(F)cn2)C(=O)NCc2ccc3c(c2)CCO3)CC1 [Compound 46] | 11.1 | 4.15 | 10400 | –
CN1CCC(N(Cc2ccc(F)cn2)C(=O)NCc2ccc(OCC(C)(C)F)cc2)CC1 [Compound 47] | 9.22 | 3.13 | 1390 | –
CCN1CCC(N(Cc2ccc(F)cn2)C(=O)NCc2ccc3c(c2)CC(C)(C)O3)CC1 [Compound 48] | 22.5 | 3.14 | 2400 | –
CCOc1ccc(CNC(=O)N(Cc2ccc(F)cn2)C2CCN(C)CC2)cc1 [Compound 49] | 7.3 | 4.1 | 2430 | –
CC(C)c1cc2cc(CNC(=O)N(Cc3ccc(F)cn3)C3CCN(C)CC3)ccc2o1 [Compound 50] | – | 20.9 | 550 | –
CC(C)CCc1ccc(CNC(=O)N(Cc2ccc(F)cn2)C2CCN(C)CC2)cc1 [Compound 52] | 42.7 | – | – | –

Compound | IC50 (5-HT2A receptor [1]) [nM] | IC50 (5-HT2A receptor [2]) [nM] | IC50 (hERG potassium channels; [3]) [nM] | IC50 (hERG potassium channels) [nM]
CN1CCC(N(Cc2ccc(F)cn2)C(=O)NCc2ccc(OCCC(F)(F)F)cc2)CC1 [Compound 55] | 2.23 | 4.7 | 690 | –
CN1CCC(N(Cc2ccc(F)cc2)C(=O)NCc2ccc(OCCF)cc2)CC1 [Compound 56] | 9.9 | 5.77 | – | –
CN1CCC(N(Cc2ccc(F)cc2)C(=O)NCc2ccc(OCC(F)F)cc2)CC1 [Compound 57] | 6.83 | 6.41 | – | –
CN1CCC(N(Cc2ccc(F)cn2)C(=O)NCc2ccc(OCCF)cc2)CC1 [Compound 60] | 16.4 | 2.11 | > 10000 | –
CN1CCC(N(Cc2ncc(F)cc2F)C(=O)NCc2ccc3c(c2)CC(C)(C)O3)CC1 [Compound 61] | 31.2 | 3.32 | 2550 | –
CN1CCC(N(Cc2ccc(F)cn2)C(=O)NCc2ccc(OCCCCF)cc2)CC1 [Compound 62] | 32.8 | 2.35 | 1430 | –
CC(C)COc1ccc(CNC(=O)N(Cc2ccc(F)cn2)C2CCN(CC3CCCCC3)CC2)cc1 [Compound 63] | 20.8 | – | – | –
CN1CCC(N(Cc2ccc(F)cc2)C(=O)NCc2ccc(OCC(F)(F)F)cc2)CC1 [Compound 65] | 18.4 | 7.98 | 670 | –
CCN1CCC(N(Cc2ccc(F)cn2)C(=O)NCc2ccc(OCC(F)(F)F)cc2)CC1 [Compound 70] | 12.3 | 8.09 | 500 | –
CN1CCC(N(Cc2ccc(F)cn2)C(=O)NCc2cc(Cl)c3c(c2)CC(C)(C)O3)CC1 [Compound 71] | – | 9.52 | 3320 | –
CN1CCC(N(Cc2ccc(F)cc2F)C(=O)NCc2ccc(OCC(F)F)cc2)CC1 [Compound 74] | – | 8.95 | – | –
CN1CCC(N(Cc2ccc(F)cc2F)C(=O)NCc2ccc(OCCF)cc2)CC1 [Compound 75] | 14.4 | 8.35 | – | –
CN1CCC(N(Cc2ccc(F)cc2F)C(=O)NCc2ccc3c(c2)CC(C)(C)O3)CC1 [Compound 76] | – | 20.7 | – | –
CN1CCC(N(Cc2ccc(F)cn2)C(=O)NCc2cc(Br)c3c(c2)CC(C)(C)O3)CC1 [Compound 77] | 6.44 | 6.59 | – | –
CN1CCC(N(Cc2ccc(F)cn2)C(=O)NCc2ccc(OCC(F)F)cc2)CC1 [Compound 78] | 6.01 | 2.17 | 1740 | –
CN1CCC(N(Cc2ncc(F)cc2F)C(=O)NCc2ccc(OC(C)(C)C)cc2)CC1 [Compound 81] | 30.1 | 2.78 | 680 | –
CC(C)COc1ccc(CNC(=O)N(Cc2ccc(F)nn2)C2CCN(C)CC2)cc1 [Compound 91] | – | 14.7 | 580 | –
CN1CCC(N(Cc2ccc(F)cn2)C(=O)NCc2ccc(OCCC(F)F)cc2)CC1 [Compound 92] | 6.54 | 4.64 | – | –
CN1CCC(N(Cc2ncc(F)cc2F)C(=O)NCc2ccc(OCCC(F)F)cc2)CC1 [Compound 93] | 10.6 | 4.26 | – | –
CN1CCC(N(Cc2ccc(F)cn2)C(=O)NCc2ccc(OCCCC(F)F)cc2)CC1 [Compound 94] | 7.59 | 4.29 | – | –
CN1CCC(N(Cc2ncc(F)cc2F)C(=O)NCc2ccc(OCCCC(F)F)cc2)CC1 [Compound 95] | 27.9 | 5.13 | – | –
CC(C)COc1ccc(CNC(=O)N(Cc2ccc(F)cn2)C2CCN(C)CC2)nc1 [Compound 96] | 26.4 | 11.4 | – | –
CN1CCC(N(Cc2ccc(F)cn2)C(=O)NCc2ccc3c(c2)CCC(C)(C)O3)CC1 [Compound 98] | – | 21.2 | 1460 | –
